In US8178658B2 (Dow AgroSciences, LLC, priority 2008, dated 2012):

Tests used:
[1] = tested on: beet armyworm (BAW; Spodoptera exigua: Lepidoptera); experiment: 96-well microtiter plate-based high throughput (HTS) diet bioassay on beet armyworm (BAW HTS); format: in vivo; details: BAW eggs, 12 μg test compound per well, mortality at 6 d post-treatment, mortality class
Experimental: (§1) Bioassays on beet armyworm (BAW; Spodoptera exigua: Lepidoptera) were conducted using either a 96-well microtiter plate-based high throughput (HTS) bioassay or a 128-well diet tray assay. The HTS assay is a based on a modification of Lewer et al. J. Nat. Prod. 2006, 69, 1506. BAW eggs of were placed on top of artificial diet (100 μl) in each well of 96-well microtiter plate. The diet was pretreated with test compounds (12 μg dissolved in 30 μL of DMSO-acetone-water mixture) layered on top of the diet using a liquid handling system and then allowed to dry for several hours. Infested plates were then covered with a layer of sterile cotton batting and the plate lid, and then held in the dark at 29° C. Mortality was recoded at 6 d post-treatment. Each plate had six replicates. The percent mortality was calculated from the average of the six replicates. In the case of the 128-well diet assay, three to five second instar BAW larvae were placed in each well (3 mL) of the diet tray that had been previously filled with 1 mL of artificial diet to which 50 μg/cm^2 of the test compound (dissolved in 50 μL of 90:10 acetone-water mixture) had been applied (to each of eight wells) and then allowed to dry. Trays were covered with a clear self-adhesive cover, and held at 25° C., 14:10 light-dark for six days. Percent mortality was recorded for the larvae in each well; activity in the eight wells was then averaged. In Table 7, under the BAW HTS or BAW 50 heading, an “A” means that the compound was tested and at least 50 percent mortality was observed whereas, “B” means that either (1) the compound was tested and less than 50 percent mortality was observed or (2) the compound was not tested.

[2] = tested on: beet armyworm (BAW; Spodoptera exigua: Lepidoptera); experiment: 128-well diet tray assay on beet armyworm (BAW 50); format: in vivo; details: 128-well diet tray assay; 50 μg/cm^2 of test compound on diet; second instar BAW larvae; mortality class
Experimental: as §1

[3] = 96-well microtiter plate HTS diet assay

Row | Compound | BAW HTS ([1]; 96-well HTS diet bioassay) | BAW HTS [1, 3] | BAW 50 ug/cm2 [2] | BAW HTS ([1]; 96-well HTS diet assay)
1 | COC1C(C)OC(ON=Cc2ccc(-c3ncn(-c4ccc(OC(F)(F)F)cc4)n3)cc2)C(OC)C1OC (stereo not drawn) [Compound 82] | B (either (1) the compound was tested and less than 50 percent mortality was observed or (2) the compound was not tested) | B (either (1) the compound was tested and less than 50 percent mortality was observed or (2) the compound was not tested) | A (the compound was tested and at least 50 percent mortality was observed) | 
2 | COC1C(C)OC(ON=Cc2ccc(-c3cn(-c4cc(Br)ccc4Cl)cn3)cc2)C(OC)C1OC (stereo not drawn) [Compound 34] | B (either (1) the compound was tested and less than 50 percent mortality was observed or (2) the compound was not tested) | B (either (1) the compound was tested and less than 50 percent mortality was observed or (2) the compound was not tested) | A (the compound was tested and at least 50 percent mortality was observed) | 
3 | COC1C(C)OC(ON=Cc2ccc(-c3nc(-c4ccc(C(C)(C)C)cc4)n[nH]3)cc2)C(OC)C1OC (stereo not drawn) [Compound 97] | B (either (1) the compound was tested and less than 50 percent mortality was observed or (2) the compound was not tested) | B (either (1) the compound was tested and less than 50 percent mortality was observed or (2) the compound was not tested) | A (the compound was tested and at least 50 percent mortality was observed) | 
4 | CCOC1C(C)OC(ON=Cc2ccc(-c3cn(-c4ccc(OC(F)(F)C(F)(F)F)cc4)cn3)cc2)C(OCC)C1OCC (stereo not drawn) [Compound 52] | B (either (1) the compound was tested and less than 50 percent mortality was observed or (2) the compound was not tested) | B (either (1) the compound was tested and less than 50 percent mortality was observed or (2) the compound was not tested) | A (the compound was tested and at least 50 percent mortality was observed) | 
5 | COC1C(C)OC(ON=Cc2ccc(-c3nccc(-c4ccc(OC(F)(F)F)cc4)n3)cc2)C(OC)C1OC (stereo not drawn) [Compound 138] |  | A (the compound was tested and at least 50 percent mortality was observed) | A (the compound was tested and at least 50 percent mortality was observed) | A (the compound was tested and at least 50 percent mortality was observed)
6 | COC1C(C)OC(ON=Cc2cccc(-c3cn(-c4ccc(OC(F)(F)F)cc4)cn3)c2)C(OC)C1OC (stereo not drawn) [Compound 58] | A (the compound was tested and at least 50 percent mortality was observed) | A (the compound was tested and at least 50 percent mortality was observed) | A (the compound was tested and at least 50 percent mortality was observed) | 
7 | CO[C@@H]1[C@@H](OC)[C@H](C)O[C@@H](O/N=C/c2ccc(-n3cnc(-c4cccnc4)n3)cc2)[C@@H]1OC [Compound 71] | A (the compound was tested and at least 50 percent mortality was observed) | A (the compound was tested and at least 50 percent mortality was observed) | B (either (1) the compound was tested and less than 50 percent mortality was observed or (2) the compound was not tested) | 
8 | COC1C(C)OC(ON=Cc2ccc(-c3cn(-c4ccc(OC(F)(F)F)cc4)nn3)cc2)C(OC)C1OC (stereo not drawn) [Compound 79] | B (either (1) the compound was tested and less than 50 percent mortality was observed or (2) the compound was not tested) | B (either (1) the compound was tested and less than 50 percent mortality was observed or (2) the compound was not tested) | A (the compound was tested and at least 50 percent mortality was observed) | 
9 | CO[C@@H]1[C@@H](OC)[C@H](C)O[C@@H](O/N=C/c2ccc(C3=NN(c4ccccc4)CC3)cc2)[C@@H]1OC [Compound 73] | B (either (1) the compound was tested and less than 50 percent mortality was observed or (2) the compound was not tested) | B (either (1) the compound was tested and less than 50 percent mortality was observed or (2) the compound was not tested) | A (the compound was tested and at least 50 percent mortality was observed) | 
10 | CCOC(=O)C1C(C)C(c2ccc(/C=N/O[C@@H]3O[C@@H](C)[C@H](OC)[C@@H](OC)[C@H]3OC)cc2)=NN1c1ccc(OC(F)(F)F)cc1 (stereo partly drawn) [Compound 56] | A (the compound was tested and at least 50 percent mortality was observed) | A (the compound was tested and at least 50 percent mortality was observed) | A (the compound was tested and at least 50 percent mortality was observed) | 
11 | CCOC1C(OC)C(C)OC(ON=Cc2ccc(-c3ncn(-c4ccc(OS(=O)(=O)C(F)(F)F)cc4)n3)cc2)C1OC (stereo not drawn) [Compound 112] | B (either (1) the compound was tested and less than 50 percent mortality was observed or (2) the compound was not tested) | B (either (1) the compound was tested and less than 50 percent mortality was observed or (2) the compound was not tested) | A (the compound was tested and at least 50 percent mortality was observed) | 
12 | CCOC1C(OC)C(C)OC(ON=Cc2ccc(-c3ncc(-c4ccc(C#N)cc4)cn3)cc2)C1OC (stereo not drawn) [Compound 154] |  | B (either (1) the compound was tested and less than 50 percent mortality was observed or (2) the compound was not tested) | A (the compound was tested and at least 50 percent mortality was observed) | B (either (1) the compound was tested and less than 50 percent mortality was observed or (2) the compound was not tested)
13 | CO[C@@H]1[C@@H](OC)[C@H](C)O[C@@H](O/N=C/c2ccc(-n3cnc(-c4ccc(Cl)cn4)n3)cc2)[C@@H]1OC [Compound 69] | B (either (1) the compound was tested and less than 50 percent mortality was observed or (2) the compound was not tested) | B (either (1) the compound was tested and less than 50 percent mortality was observed or (2) the compound was not tested) | B (either (1) the compound was tested and less than 50 percent mortality was observed or (2) the compound was not tested) | 
14 | CCOC1C(OC)C(C)OC(ON=Cc2cccc(-c3ncc(-c4cccc(OC(F)(F)F)c4)cn3)c2)C1OC (stereo not drawn) [Compound 149] |  | B (either (1) the compound was tested and less than 50 percent mortality was observed or (2) the compound was not tested) | A (the compound was tested and at least 50 percent mortality was observed) | B (either (1) the compound was tested and less than 50 percent mortality was observed or (2) the compound was not tested)
15 | CCO[C@@H]1[C@@H](OC)[C@H](C)O[C@@H](OC(=O)Nc2ccc(-n3c(C(=O)OC)nn(-c4ccc(OC(F)(F)F)cc4)c3=O)cc2)[C@@H]1OC [Compound 226] |  | B (either (1) the compound was tested and less than 50 percent mortality was observed or (2) the compound was not tested) | B (either (1) the compound was tested and less than 50 percent mortality was observed or (2) the compound was not tested) | B (either (1) the compound was tested and less than 50 percent mortality was observed or (2) the compound was not tested)
16 | CCO[C@@H]1[C@@H](OCC)[C@H](C)O[C@@H](OC(=O)Nc2ccc(-c3ncn(-c4ccc(OC(F)(F)C(F)(F)F)cc4)n3)cc2)[C@@H]1OCC [Compound 206] |  | A (the compound was tested and at least 50 percent mortality was observed) | A (the compound was tested and at least 50 percent mortality was observed) | A (the compound was tested and at least 50 percent mortality was observed)
17 | CO[C@@H]1[C@@H](OC)[C@H](C)O[C@@H](OC(=O)Nc2ccc(-c3ncn(-c4ccc(Oc5ccc(Cl)cc5)cc4)n3)cc2)[C@@H]1OC [Compound 196] |  | A (the compound was tested and at least 50 percent mortality was observed) | A (the compound was tested and at least 50 percent mortality was observed) | A (the compound was tested and at least 50 percent mortality was observed)
18 | COC(=O)C1CC(c2ccc(/C=N/O[C@@H]3O[C@@H](C)[C@H](OC)[C@@H](OC)[C@H]3OC)cc2)=NN1c1ccc(OC(F)(F)F)cc1 (stereo partly drawn) [Compound 54] | A (the compound was tested and at least 50 percent mortality was observed) | A (the compound was tested and at least 50 percent mortality was observed) | A (the compound was tested and at least 50 percent mortality was observed) | 
19 | CCCCOC1C(OC)C(C)OC(ON=Cc2ccc(-c3ncn(-c4ccc(OC(F)(F)C(F)(F)F)cc4)n3)cc2)C1OC (stereo not drawn) [Compound 109] | A (the compound was tested and at least 50 percent mortality was observed) | A (the compound was tested and at least 50 percent mortality was observed) | A (the compound was tested and at least 50 percent mortality was observed) | 
